Measurements: patent US9724328B2, “Methods and compositions for treatment of lipid storage disorders” (NEUROTROPE BIOSCIENCE, priority 2014, dated 2017)

Columns and labels:
NPC3-SV cells = assay: Stored cholesterol by filipin staining in NPC3-SV cells; assay type: cell-based, Human; conditions: for clearance of cholesterol (stored cholesterol levels): 48 h, FIG. 8
Description: (§1) Cells are plated in 6-well dishes and treated with the appropriate compound (dissolved in DMSO) at the indicated dose daily for 48 hrs. Control cells receive DMSO. After 48 hrs cells are transferred to cover slips with fresh compound and grown for another 24 hrs. Cover slips are collected and processed for microscopy.
(§2) Filipin: For detection of unesterified cholesterol in lysosomes, cells were fixed in formalin for 30 min at 4° C., washed 2×, 5 min in 0.9% NaCl, incubated for 45 min with 0.01% filipin in PBS at room temperature, and then washed 2×, 5 min. Fluorescence was observed using a Nikon Eclipse fluorescence microscope (Nikon, Melville, N.Y.) equipped with a CCD camera. Fluorescence signals were quantified using Nikon's imaging and quantitation software package NIS Elements, v. 3.22.

human NPC1 3123 cells = assay: Sphingolipid transport, BODIPY-LacCer staining; assay type: cell-based; conditions: 48 hours
Description: For filipin staining in transfected cells, cells were transfected with PKC or Rab9 using Fugene 6 according to the manufacturer's recommendations. After 48 hrs, cells were stained with filipin as we have previously described. Cells were mounted onto slides using Fluoromount-G (SouthernBiotech, Birmingham, Ala.) and analyzed on a Nikon Eclipse microscope fitted with a charge-coupled-device camera (Nikon, Melville, N.Y.). Images were acquired with MetaVue software and then deconvoluted using AutoDeblur software from AutoQuant Imaging, Inc (Troy, N.Y.). For quantitation of filipin fluorescence, cells were seeded at 3×10^5 cells/well in 6-well dishes and allowed to settle overnight, after which the medium was replaced with medium containing 10% lipoprotein deficient serum (LPDS) for 4 days. Cells were incubated with oleic/linoleic acids for 48 hours, DCPLA/DHA for 24 hrs, or diazoxide for 72 hrs before fixing and staining with filipin as we have previously described. Images were acquired using the same exposure time for all samples. Fluorescence intensity was determined using the integrated intensity function of MetaVue software; at least 150 cells were quantitated for each sample and each experiment was repeated 3 times. For analysis of sphingolipid transport, cells were incubated with oleic/linoleic acids, DCP-LA, or PMA for 48 hours before BODIPY-LacCer staining was performed as previously described.

[1] = system: human NPC1 fibroblasts (NPC1 3123); assay: Soluble vimentin levels by Western blot after fatty acid treatment; assay type: cell-based; conditions: for soluble vimentin in NPC1 cells: discussion statement, FIG. 5, concentration not given; for levels of soluble vimentin in cell lysates: human NPC1 fibroblasts, 50 μg/ml, 48 hours (FIG. 5 legend: 24 hrs)
Description: The human wild-type fibroblast (GM05387), NPClo fibroblast (GM09341), and NPC1 fibroblast (GM03123) cell lines were obtained from Coriell Cell Repositories (Camden, N.J.). The M12 Chinese hamster ovary (CHO) cell line and its wild-type parental line were obtained and cultured. Fibroblast cell lines were cultured in DMEM, and CHO cells were cultured in DMEM/F12 (50:50) medium, supplemented with 10% FBS, 2 mM L-glutamine, and 50 μg/ml gentamicin in a humidified incubator at 37° C. with 5% CO2.
Transfected cells were harvested with PBS containing 2 mM EDTA at 2 days post-transfection. Soluble and insoluble cell fractions were prepared as described previously. Briefly, to obtain the soluble/cytoplasmic fraction, cells were incubated on ice for 30 min in cold “phospho” buffer [150 mM NaCl, 20 mM NaF, 100 μM Na3VO4, 20 mM Hepes, pH 7.5), 1% (v/v) Igepal, 10% (v/v) glycerol, and 1 μL/20 mg tissue of protease inhibitor cocktail] and then centrifuged for 20 min at 14,000 rpm at 4° C.; the clear supernatant was frozen in aliquots at a concentration of 1 μg/μl. The pellet (insoluble fraction) was washed 3 times in ice-cold PBS containing 2 mM EDTA and then resuspended in a volume of “Triton” buffer [PBS, 1% (w/v) SDS, and 0.1% (v/v) Triton X-100] equal to the “phospho” buffer. This solution was boiled for 10 min and sonicated until the solution became clear. The protein concentration of this fraction was adjusted to 1 μg/μl according to the protein concentrations determined for the soluble/cytoplasmic fraction. Protein concentrations were determined using the fluorescamine method as we have described. 4-12% Bis-Tris precast gel (Invitrogen, Carlsbad, Calif.) and then transferred onto a Protran membrane using an XCell II apparatus (Invitrogen, Carlsbad, Calif.) according to the manufacturer's instructions. Blots were processed as described previously.

NPC24-SV cells [2] = assay: Cholesterol accumulation by filipin staining in NPC24-SV cells; assay type: cell-based, Human
Description: as §1, §2

NPC3SV cells = assay type: cell-based, Human; conditions: FIG. 12, concentration not given
NPC cells = conditions: earlier study [5]; cited from earlier work
NPC24-SV cells [3] = assay: Glycosphingolipid accumulation by VTB staining in NPC24-SV cells; assay type: cell-based, Human; conditions: 0.1 nM
C57Bl6 NPC1 mice = assay: Survival of C57Bl6 NPC1 mice dosed IP twice weekly; assay type: in vivo, mouse
Description: A total of […] C57Bl6 NPC1 mice, mixed sex, were used. These mice were separated into 5 groups of 5 mice each, Groups 1-5.
Bryostatin 1 (purity≧95%) from Aphios (Woburn, Mass.), 1 vial 2 mg, was solubilized in a 5% DMSO, 20% Solutol and 75% Saline solution and used as the study drug. The negative (vehicle) control is a 5% DMSO, 20% Solutol and 75% Saline solution. DCP-LA from Sigma-Aldrich: 5 mg oil/vial was used as an additional in vitro active compound. Bryostatin 1 (API) was stored at or below −20° C. and formulated as needed. The formulated bryostatin 1 was stored at 2° to 8° C. for less than 24 hour(s). The DCP-LA and the vehicle controls were stored at 2°-8° C.
The stock solution of bryostatin 1 is 10 mg/ml in DMSO, which is kept at −80° C. in aliquots. The dosing formulation is made by diluting the stock first in DMSO, then adding solutol, and lastly saline—with more insoluble compounds, adding the drug stock to complete vehicle will cause the compound to come out of solution, so we make formulations stepwise. The dosing volume is always 100 μl. Mice weigh approximately 20 g.
The mice are dosed twice weekly (Mon and Thu) starting at 30 days for up to 150 days.
C57 NPC1 mice have an average life span of ˜110 days. By Day 70 mice reach an average weight of 18-22 grams. Untreated NPC1 mice develop ataxia and will begin to lose weight at ˜70 days (see FIG. 17). Ataxia (or lack of voluntary muscle control) is a clinical feature of NPC1 mice, which may be described as shaking. Treatment will be initiated at ˜30 days of age, average NPC mouse weight of 10 g. If the drug is efficacious injections will continue past day 70-80. An extension of life of about 20-30% will mean that animals will need to be treated up to day 130-150.

M12 NPC1 CHO cells = assay: Cholesterol esterification assay ([3H] oleate); assay type: cell-based, Chinese hamster; conditions: 50 μg/ml fatty acid for 2 days followed by expression of PKC ε
Description: The preparation of [^3H] oleate substrate and esterification assays were performed as previously described. Cells were treated with 50 μg/ml fatty acid for 2 days and then transfected with PKE α or PKC ε for 24 hrs before esterification assays. All values were generated in triplicate and normalized for total cell protein.

SMILES: CCCCCC1CC1CC1CC1CCCCCCCC(=O)O (centres unmarked) [DCP-LA, 8-[2-(2-pentyl-cyclopropylmethyl)-cyclopropyl]-octanoic acid]
- clearance of cholesterol (stored cholesterol levels) (NPC3-SV cells): able to induce clearance of cholesterol
- BODIPY-LacCer transport to the trans-Golgi network (human NPC1 3123 cells; 20 μM): the lipid can be seen in the TGN
- soluble vimentin in NPC1 cells [1]: increase of soluble vimentin
- filipin accumulation (NPC24-SV cells [2]; NPC24-SV cells, FIG. 11, concentration not given): decrease filipin accumulation
- ganglioside transport block (NPC3SV cells): release the ganglioside transport block

SMILES: CCCCCCCCCCCCCC(=O)O[C@@H]1[C@@H](C)[C@@]2(O)[C@@H](C=C(CO)C[C@]3(O)C(=O)C(C)=C[C@@H]23)[C@@H]2C(C)(C)[C@]12OC(C)=O [PMA, phorbol-12-myristate-13-acetate]
- BODIPY-LacCer transport to the trans-Golgi network (human NPC1 3123 cells; 100 nM): the lipid can be seen in the TGN
- NPC lipid storage phenotype (NPC cells): ameliorated the NPC lipid storage phenotype
- levels of soluble vimentin (NPC cells): increased levels of soluble vimentin

SMILES: CCC/C=C/C=C/C(=O)O[C@H]1/C(=C/C(=O)OC)C[C@H]2C[C@H]([C@@H](C)O)OC(=O)C[C@H](O)C[C@@H]3C[C@H](OC(C)=O)C(C)(C)[C@](O)(C[C@@H]4C/C(=C/C(=O)OC)C[C@H](/C=C/C(C)(C)[C@]1(O)O2)O4)O3 [bryostatin 1]
- clearance of cholesterol (stored cholesterol levels) (NPC3-SV cells): able to induce clearance of cholesterol
- stored cholesterol levels (NPC3-SV cells; 72 h, FIG. 9): activity in the nanomolar concentration range
- effect in sphingolipid assay (NPC24-SV cells [3]): no effect
- effect in cholesterol assay (NPC24-SV cells [2]; 0.1 nM, NPC24-SV cells): no effect
- cholesterol clearance (NPC24-SV cells [2]; 10 nM, NPC24-SV cells, FIG. 11): able to effect cholesterol clearance
- concentration showing a positive therapeutic effect (NPC24-SV cells [2]; human NPC1 disease cells, summary of Example 2): 10 to 100 nM
- age that mice lived past (C57Bl6 NPC1 mice; 10 μg/kg IP twice weekly from 30 days of age): > 100 days
- age that mice lived past (C57Bl6 NPC1 mice; 20 μg/kg IP twice weekly from 30 days of age): > 100 days
- age that mice lived past (C57Bl6 NPC1 mice; 30 μg/kg IP twice weekly from 30 days of age): > 100 days

SMILES: CC1=NS(=O)(=O)c2cc(Cl)ccc2N1 [diazoxide]
- clearance of cholesterol (stored cholesterol levels) (NPC3-SV cells): able to induce clearance of cholesterol

SMILES: CCCCC/C=C\C/C=C\CCCCCCCC(=O)O [linoleic acid]
- cholesterol esterification levels over untreated cells (M12 NPC1 CHO cells): ~3.5 fold
- BODIPY-LacCer transport to the trans-Golgi network (human NPC1 3123 cells; 2 μg/ml): the lipid can be seen in the TGN
- soluble vimentin in NPC1 cells [1]: increase of soluble vimentin
- levels of soluble vimentin in cell lysates [1]: significantly increases the amount of soluble vimentin

SMILES: CCCCCCCC/C=C\CCCCCCCC(=O)O [oleic acid, cis-9-octadecenoic acid]
- cholesterol esterification levels over untreated cells (M12 NPC1 CHO cells): ~3.5 fold
- BODIPY-LacCer transport to the trans-Golgi network (human NPC1 3123 cells; 2 μg/ml): the lipid can be seen in the TGN
- soluble vimentin in NPC1 cells [1]: increase of soluble vimentin
- levels of soluble vimentin in cell lysates [1]: significantly increases the amount of soluble vimentin
